The source made the active and inactive calls. Cut-off read from the data, not from the text of the source, for most assays here: actives have a measured Kd and inactives only a lower limit.
Tests used:
[1] = target: RAC-alpha serine/threonine-protein kinase (Homo sapiens, UniProt P31749)
[2] = target: Cyclin-dependent kinase 13 (Homo sapiens, UniProt Q14004)
[3] = target: Cyclin-dependent kinase 6 (Homo sapiens, UniProt Q00534)
dCTP pyrophosphatase 1 = target: T1, dCTP pyrophosphatase 1 (Homo sapiens, UniProt Q9H773)
T1 sequence (Q9H773 whole entry): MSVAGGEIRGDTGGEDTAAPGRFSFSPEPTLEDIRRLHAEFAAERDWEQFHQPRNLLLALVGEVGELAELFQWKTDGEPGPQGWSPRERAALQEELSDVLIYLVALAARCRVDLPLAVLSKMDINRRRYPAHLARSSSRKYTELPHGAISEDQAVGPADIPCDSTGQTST

[4] = target: T2, Mitogen-activated protein kinase kinase kinase kinase 2 (Homo sapiens, UniProt Q12851)
T2 sequence (Q12851 whole entry): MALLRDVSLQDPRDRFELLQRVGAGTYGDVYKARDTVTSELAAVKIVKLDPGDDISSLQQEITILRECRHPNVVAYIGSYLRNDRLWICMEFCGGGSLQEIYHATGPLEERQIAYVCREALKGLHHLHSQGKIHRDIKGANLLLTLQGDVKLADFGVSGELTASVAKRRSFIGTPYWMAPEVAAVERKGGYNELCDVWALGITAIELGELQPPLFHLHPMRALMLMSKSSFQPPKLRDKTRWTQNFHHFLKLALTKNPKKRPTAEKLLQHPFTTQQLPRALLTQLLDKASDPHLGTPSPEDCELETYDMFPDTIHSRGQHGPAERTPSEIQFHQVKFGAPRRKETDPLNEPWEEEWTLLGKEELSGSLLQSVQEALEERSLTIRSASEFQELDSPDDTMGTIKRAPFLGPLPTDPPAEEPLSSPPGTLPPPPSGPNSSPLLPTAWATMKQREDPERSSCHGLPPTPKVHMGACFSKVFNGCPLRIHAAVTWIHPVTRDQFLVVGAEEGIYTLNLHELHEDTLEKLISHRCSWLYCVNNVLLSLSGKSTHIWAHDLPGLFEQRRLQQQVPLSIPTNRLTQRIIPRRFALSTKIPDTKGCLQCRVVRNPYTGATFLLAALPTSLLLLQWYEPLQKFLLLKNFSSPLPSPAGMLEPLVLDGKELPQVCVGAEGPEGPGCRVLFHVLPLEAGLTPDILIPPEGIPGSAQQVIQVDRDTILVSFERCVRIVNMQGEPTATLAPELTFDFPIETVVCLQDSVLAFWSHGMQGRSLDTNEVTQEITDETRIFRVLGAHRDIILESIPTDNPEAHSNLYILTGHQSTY

[5] = target: Mitogen-activated protein kinase 1 (Homo sapiens, UniProt P28482)
[6] = target: T3, Serine/threonine-protein kinase NLK (Homo sapiens, UniProt Q9UBE8)
T3 sequence (Q9UBE8 whole entry): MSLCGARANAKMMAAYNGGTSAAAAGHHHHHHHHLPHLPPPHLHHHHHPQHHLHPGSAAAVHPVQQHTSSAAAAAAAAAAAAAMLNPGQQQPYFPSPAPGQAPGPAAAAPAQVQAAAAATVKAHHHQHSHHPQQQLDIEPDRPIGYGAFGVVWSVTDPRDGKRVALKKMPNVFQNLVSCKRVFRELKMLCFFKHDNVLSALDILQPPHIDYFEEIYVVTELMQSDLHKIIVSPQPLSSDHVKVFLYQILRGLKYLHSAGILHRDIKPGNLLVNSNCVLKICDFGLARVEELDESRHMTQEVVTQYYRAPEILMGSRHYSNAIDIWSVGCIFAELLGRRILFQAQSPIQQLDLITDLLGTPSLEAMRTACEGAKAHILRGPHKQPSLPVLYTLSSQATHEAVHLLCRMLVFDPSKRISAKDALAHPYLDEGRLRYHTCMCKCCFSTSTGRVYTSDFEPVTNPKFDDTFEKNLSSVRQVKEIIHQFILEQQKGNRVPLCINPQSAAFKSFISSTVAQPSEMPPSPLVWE

[7] = target: Ribosomal protein S6 kinase alpha-5 (Homo sapiens, UniProt O75582)
[8] = target: U5 small nuclear ribonucleoprotein 200 kDa helicase (Homo sapiens, UniProt O75643)
TGF-beta receptor type-2 = TGF-beta receptor type-2 (Homo sapiens, UniProt P37173)
[9] = target: T4, Non-receptor tyrosine-protein kinase TNK1 (Homo sapiens, UniProt Q13470)
T4 sequence (Q13470 whole entry): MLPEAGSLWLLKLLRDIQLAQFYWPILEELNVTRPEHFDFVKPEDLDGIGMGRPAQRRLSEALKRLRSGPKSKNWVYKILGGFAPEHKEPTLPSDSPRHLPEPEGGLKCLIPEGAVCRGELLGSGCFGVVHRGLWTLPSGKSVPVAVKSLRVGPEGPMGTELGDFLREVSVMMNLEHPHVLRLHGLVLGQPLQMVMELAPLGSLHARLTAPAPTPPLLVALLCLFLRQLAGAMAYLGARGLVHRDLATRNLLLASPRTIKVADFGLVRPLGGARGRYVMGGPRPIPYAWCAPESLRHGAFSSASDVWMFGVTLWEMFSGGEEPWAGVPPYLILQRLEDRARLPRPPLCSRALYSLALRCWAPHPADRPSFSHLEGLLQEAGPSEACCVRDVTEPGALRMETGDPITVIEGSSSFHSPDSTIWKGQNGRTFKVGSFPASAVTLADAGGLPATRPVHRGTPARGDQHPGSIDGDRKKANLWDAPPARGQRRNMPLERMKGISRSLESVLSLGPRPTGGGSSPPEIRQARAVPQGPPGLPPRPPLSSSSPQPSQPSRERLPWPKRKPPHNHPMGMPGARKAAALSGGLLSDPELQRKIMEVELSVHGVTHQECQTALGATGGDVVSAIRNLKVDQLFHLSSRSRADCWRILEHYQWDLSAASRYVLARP
Note: in the data inactive means no Kd found up to 30 µM.

Chain of Mitogen-activated protein kinase 1 (P28482 whole entry): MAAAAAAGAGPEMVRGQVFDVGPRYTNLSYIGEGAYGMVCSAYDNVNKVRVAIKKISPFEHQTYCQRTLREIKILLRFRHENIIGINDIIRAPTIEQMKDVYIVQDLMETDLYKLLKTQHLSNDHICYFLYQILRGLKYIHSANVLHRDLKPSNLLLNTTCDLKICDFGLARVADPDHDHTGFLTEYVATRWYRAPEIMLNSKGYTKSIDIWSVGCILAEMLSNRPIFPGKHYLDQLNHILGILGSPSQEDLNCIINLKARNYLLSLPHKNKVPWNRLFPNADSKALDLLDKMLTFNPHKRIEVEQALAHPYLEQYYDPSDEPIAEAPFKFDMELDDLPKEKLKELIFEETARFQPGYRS
Chain of U5 small nuclear ribonucleoprotein 200 kDa helicase (O75643 whole entry): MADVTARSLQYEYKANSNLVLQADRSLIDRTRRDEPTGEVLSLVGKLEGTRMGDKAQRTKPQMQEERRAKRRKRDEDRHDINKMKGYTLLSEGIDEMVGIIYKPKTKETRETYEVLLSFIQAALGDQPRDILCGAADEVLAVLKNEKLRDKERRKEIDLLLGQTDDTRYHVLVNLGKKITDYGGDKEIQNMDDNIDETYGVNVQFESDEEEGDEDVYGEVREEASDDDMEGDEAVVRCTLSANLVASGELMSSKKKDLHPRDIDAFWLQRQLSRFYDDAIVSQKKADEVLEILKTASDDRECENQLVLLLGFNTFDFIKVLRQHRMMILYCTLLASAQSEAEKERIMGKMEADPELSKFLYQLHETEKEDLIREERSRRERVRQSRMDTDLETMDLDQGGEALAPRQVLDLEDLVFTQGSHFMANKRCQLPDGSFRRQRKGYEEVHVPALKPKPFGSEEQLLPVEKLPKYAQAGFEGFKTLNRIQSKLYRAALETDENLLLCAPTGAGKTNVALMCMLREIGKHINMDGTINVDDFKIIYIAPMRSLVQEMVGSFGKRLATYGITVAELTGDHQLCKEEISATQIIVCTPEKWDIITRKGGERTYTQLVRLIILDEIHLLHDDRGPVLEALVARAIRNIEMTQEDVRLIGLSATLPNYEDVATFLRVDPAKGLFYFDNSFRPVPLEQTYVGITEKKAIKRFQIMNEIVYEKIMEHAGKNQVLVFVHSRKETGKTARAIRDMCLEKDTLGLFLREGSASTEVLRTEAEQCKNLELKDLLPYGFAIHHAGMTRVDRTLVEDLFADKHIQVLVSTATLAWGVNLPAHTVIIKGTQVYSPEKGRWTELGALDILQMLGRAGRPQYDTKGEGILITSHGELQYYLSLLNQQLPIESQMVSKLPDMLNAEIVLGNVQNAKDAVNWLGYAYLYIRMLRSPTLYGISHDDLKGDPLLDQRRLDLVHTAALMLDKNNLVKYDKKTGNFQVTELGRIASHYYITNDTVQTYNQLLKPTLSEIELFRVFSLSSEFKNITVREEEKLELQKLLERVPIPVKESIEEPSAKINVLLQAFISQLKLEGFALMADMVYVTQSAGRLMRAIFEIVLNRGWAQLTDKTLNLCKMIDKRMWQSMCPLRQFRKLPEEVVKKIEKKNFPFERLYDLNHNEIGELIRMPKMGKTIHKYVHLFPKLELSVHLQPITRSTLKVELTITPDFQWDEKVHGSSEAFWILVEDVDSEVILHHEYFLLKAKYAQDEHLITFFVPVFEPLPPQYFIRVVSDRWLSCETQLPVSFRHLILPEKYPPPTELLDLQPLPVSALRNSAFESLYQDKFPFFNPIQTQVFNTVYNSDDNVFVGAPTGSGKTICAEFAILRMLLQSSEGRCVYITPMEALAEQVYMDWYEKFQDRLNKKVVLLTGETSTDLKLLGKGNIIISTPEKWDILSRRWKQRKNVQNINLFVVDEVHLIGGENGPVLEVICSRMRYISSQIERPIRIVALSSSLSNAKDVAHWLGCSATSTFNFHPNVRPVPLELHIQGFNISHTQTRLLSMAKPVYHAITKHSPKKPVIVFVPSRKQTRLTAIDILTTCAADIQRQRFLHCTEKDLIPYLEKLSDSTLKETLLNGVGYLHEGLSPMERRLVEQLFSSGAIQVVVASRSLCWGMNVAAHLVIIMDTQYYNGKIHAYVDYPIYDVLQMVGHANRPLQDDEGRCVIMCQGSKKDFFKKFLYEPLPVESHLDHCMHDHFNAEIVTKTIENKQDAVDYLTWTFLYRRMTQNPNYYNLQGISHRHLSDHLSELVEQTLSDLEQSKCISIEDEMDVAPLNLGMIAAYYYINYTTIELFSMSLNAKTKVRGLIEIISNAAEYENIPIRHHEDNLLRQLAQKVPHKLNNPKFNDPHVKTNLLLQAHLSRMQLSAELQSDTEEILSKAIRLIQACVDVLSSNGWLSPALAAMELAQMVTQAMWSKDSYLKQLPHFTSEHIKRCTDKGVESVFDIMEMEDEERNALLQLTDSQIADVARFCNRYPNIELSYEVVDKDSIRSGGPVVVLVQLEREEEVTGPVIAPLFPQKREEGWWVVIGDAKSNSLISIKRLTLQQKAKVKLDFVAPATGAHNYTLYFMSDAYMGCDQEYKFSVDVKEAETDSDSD
Chain of RAC-alpha serine/threonine-protein kinase (P31749 whole entry): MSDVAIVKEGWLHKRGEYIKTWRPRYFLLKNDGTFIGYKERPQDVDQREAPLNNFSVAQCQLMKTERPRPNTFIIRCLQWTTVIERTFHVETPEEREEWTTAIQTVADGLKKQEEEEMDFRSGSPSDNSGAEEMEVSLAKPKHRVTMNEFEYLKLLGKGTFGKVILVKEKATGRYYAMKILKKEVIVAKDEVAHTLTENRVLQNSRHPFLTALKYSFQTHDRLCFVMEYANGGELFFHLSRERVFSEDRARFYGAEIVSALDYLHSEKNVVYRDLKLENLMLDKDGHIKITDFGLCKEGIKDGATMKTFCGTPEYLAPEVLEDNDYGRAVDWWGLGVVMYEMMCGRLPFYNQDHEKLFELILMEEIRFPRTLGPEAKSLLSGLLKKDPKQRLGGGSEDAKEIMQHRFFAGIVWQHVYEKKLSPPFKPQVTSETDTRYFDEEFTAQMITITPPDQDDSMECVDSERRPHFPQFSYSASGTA
Chain of Cyclin-dependent kinase 6 (Q00534 whole entry): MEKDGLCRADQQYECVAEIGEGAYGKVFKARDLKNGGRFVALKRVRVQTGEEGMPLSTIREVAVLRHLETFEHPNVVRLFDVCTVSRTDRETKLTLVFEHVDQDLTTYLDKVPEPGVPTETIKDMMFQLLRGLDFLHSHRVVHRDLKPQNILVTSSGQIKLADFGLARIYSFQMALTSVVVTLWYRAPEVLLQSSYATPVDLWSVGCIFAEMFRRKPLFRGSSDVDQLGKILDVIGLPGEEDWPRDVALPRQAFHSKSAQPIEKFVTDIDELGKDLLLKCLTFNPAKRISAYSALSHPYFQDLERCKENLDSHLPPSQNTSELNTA
Chain of TGF-beta receptor type-2 (P37173 whole entry): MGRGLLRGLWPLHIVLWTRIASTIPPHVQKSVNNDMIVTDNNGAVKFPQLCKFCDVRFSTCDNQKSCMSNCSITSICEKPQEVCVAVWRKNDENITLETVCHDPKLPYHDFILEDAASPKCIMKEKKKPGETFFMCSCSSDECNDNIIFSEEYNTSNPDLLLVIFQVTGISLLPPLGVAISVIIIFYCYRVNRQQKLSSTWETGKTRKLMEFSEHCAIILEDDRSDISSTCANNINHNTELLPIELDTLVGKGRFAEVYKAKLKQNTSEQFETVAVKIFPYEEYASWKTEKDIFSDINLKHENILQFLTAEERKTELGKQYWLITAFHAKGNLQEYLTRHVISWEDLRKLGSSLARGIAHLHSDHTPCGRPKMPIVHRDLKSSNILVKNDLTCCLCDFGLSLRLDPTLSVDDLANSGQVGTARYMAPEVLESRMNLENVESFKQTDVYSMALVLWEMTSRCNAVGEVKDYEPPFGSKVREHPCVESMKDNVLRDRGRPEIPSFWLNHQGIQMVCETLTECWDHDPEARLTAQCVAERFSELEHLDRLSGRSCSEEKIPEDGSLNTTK
Chain of Ribosomal protein S6 kinase alpha-5 (O75582 whole entry): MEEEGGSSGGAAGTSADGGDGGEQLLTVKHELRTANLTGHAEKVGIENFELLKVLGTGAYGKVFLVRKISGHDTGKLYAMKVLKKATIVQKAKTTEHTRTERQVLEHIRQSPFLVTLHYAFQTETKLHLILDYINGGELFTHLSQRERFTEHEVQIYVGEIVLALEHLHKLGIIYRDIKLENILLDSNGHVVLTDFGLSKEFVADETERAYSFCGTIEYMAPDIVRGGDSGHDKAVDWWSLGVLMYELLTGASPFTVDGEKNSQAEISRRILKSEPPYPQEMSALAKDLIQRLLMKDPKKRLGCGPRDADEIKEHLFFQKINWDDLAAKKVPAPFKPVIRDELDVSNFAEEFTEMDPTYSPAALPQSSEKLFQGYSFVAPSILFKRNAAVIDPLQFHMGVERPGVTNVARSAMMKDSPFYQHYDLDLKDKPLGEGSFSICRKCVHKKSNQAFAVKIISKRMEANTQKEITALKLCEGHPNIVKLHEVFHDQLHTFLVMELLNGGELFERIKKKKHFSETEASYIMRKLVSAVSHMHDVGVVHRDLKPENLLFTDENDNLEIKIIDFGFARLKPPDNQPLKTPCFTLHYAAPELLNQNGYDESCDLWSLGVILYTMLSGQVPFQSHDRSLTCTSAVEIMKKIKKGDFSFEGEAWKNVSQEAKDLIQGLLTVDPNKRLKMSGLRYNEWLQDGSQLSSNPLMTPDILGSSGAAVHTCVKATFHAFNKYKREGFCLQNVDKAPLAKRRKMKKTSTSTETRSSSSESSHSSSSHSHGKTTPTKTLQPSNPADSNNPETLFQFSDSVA

Compound	Kd [1]	Kd [2]	Kd [3]	Kd (dCTP pyrophosphatase 1)	Kd [4]	Kd [5]	Kd [6]	Kd [7]	Kd [8]	Kd (TGF-beta receptor type-2)	Kd [9]
CO[C@H]1C[C@@H]2CC[C@@H](C)[C@@](O)(O2)C(=O)C(=O)N2CCCC[C@H]2C(=O)O[C@H]([C@H](C)C[C@@H]2CC[C@@H](OCCO)[C@H](OC)C2)CC(=O)[C@H](C)/C=C(\C)[C@@H](O)[C@@H](OC)C(=O)[C@H](C)C[C@H](C)/C=C/C=C/C=C/1C [EVEROLIMUS]	> 30 µM (inactive)	> 30 µM (inactive)	> 30 µM (inactive)	> 30 µM (inactive)	> 30 µM (inactive)	> 30 µM (inactive)	> 30 µM (inactive)	> 30 µM (inactive)	> 30 µM (inactive)	> 30 µM (inactive)	> 30 µM (inactive)
CCN1CCN(Cc2ccc(-c3cc4c(N[C@H](C)c5ccccc5)ncnc4[nH]3)cc2)CC1 [AEE-788]	> 30 µM (inactive)	> 30 µM (inactive)	> 30 µM (inactive)	> 30 µM (inactive)	3.53 µM (active)	> 30 µM (inactive)	> 30 µM (inactive)	> 30 µM (inactive)	> 30 µM (inactive)	> 30 µM (inactive)	> 30 µM (inactive)
CC(=O)Nc1cccc(-n2c(=O)n(C3CC3)c(=O)c3c(Nc4ccc(I)cc4F)n(C)c(=O)c(C)c32)c1 [TRAMETINIB]	> 30 µM (inactive)	> 30 µM (inactive)	> 30 µM (inactive)	> 30 µM (inactive)	> 30 µM (inactive)	> 30 µM (inactive)	> 30 µM (inactive)	> 30 µM (inactive)	> 30 µM (inactive)	> 30 µM (inactive)	> 30 µM (inactive)
O=C(O)[C@]1(Cc2cccc(Nc3nccs3)n2)CC[C@@H](Oc2cccc(Cl)c2F)CC1 [MK-5108]	> 30 µM (inactive)	> 30 µM (inactive)	> 30 µM (inactive)	> 30 µM (inactive)	1.85 µM (active)	> 30 µM (inactive)	> 30 µM (inactive)	> 30 µM (inactive)	> 30 µM (inactive)	> 30 µM (inactive)	0.006 µM (active)
C1=C/COCc2cc(ccc2OCCN2CCCC2)Nc2nccc(n2)-c2cccc(c2)COC/1 [PACRITINIB]	> 30 µM (inactive)	> 30 µM (inactive)	> 30 µM (inactive)	> 30 µM (inactive)	3.72 µM (active)	> 30 µM (inactive)	> 30 µM (inactive)	> 30 µM (inactive)	> 30 µM (inactive)	> 30 µM (inactive)	0.888 µM (active)
Cc1ccc(NC(=O)c2ccc(CN3CC[C@H](N(C)C)C3)c(C(F)(F)F)c2)cc1Nc1nccc(-c2cncnc2)n1 [BAFETINIB]	> 30 µM (inactive)	> 30 µM (inactive)	> 30 µM (inactive)	> 30 µM (inactive)	> 30 µM (inactive)	> 30 µM (inactive)	> 30 µM (inactive)	> 30 µM (inactive)	> 30 µM (inactive)	> 30 µM (inactive)	> 30 µM (inactive)
O=C(Nc1ccc(-c2ccnc(Nc3ccc(N4CCOCC4)cc3)n2)cc1)C1CCCN1 (configuration not stated) [XL-019]	> 30 µM (inactive)	> 30 µM (inactive)	> 30 µM (inactive)	> 30 µM (inactive)	> 30 µM (inactive)	> 30 µM (inactive)	0.027 µM	> 30 µM (inactive)	> 30 µM (inactive)	> 30 µM (inactive)	> 30 µM (inactive)
O=C(c1ccc(F)c(F)c1Nc1ccc(I)cc1F)N1CC(O)([C@@H]2CCCCN2)C1 [COBIMETINIB]	> 30 µM (inactive)	> 30 µM (inactive)	> 30 µM (inactive)	> 30 µM (inactive)	> 30 µM (inactive)	> 30 µM (inactive)	> 30 µM (inactive)	> 30 µM (inactive)	> 30 µM (inactive)	> 30 µM (inactive)	> 30 µM (inactive)
C[C@@H]1CN(Cc2ccc(F)cc2)[C@@H](C)CN1C(=O)c1cc2c(C(=O)C(=O)N(C)C)cn(C)c2cc1Cl [TALMAPIMOD]	> 30 µM (inactive)	> 30 µM (inactive)	> 30 µM (inactive)	> 30 µM (inactive)	> 30 µM (inactive)	> 30 µM (inactive)	> 30 µM (inactive)	> 30 µM (inactive)	> 30 µM (inactive)	> 30 µM (inactive)	> 30 µM (inactive)
Cc1cc(-c2cc(O)ccc2Cl)cc2nnc(Nc3ccc(OCCN4CCCC4)cc3)nc12	> 30 µM (inactive)	> 30 µM (inactive)	> 30 µM (inactive)	> 30 µM (inactive)	> 30 µM (inactive)	> 30 µM (inactive)	0.003 µM (active)	> 30 µM (inactive)	> 30 µM (inactive)	> 30 µM (inactive)	> 30 µM (inactive)
COc1cc(CCc2cc(NC(=O)c3ccc(N4C[C@@H](C)N[C@@H](C)C4)cc3)n[nH]2)cc(OC)c1 [AZD-4547]	> 30 µM (inactive)	> 30 µM (inactive)	> 30 µM (inactive)	> 30 µM (inactive)	0.11 µM (active)	> 30 µM (inactive)	> 30 µM (inactive)	> 30 µM (inactive)	> 30 µM (inactive)	> 30 µM (inactive)	> 30 µM (inactive)
Cc1cc([C@@H](C)Nc2ccccc2C(=O)O)c2nc(N3CCOCC3)cc(=O)n2c1 [AZD-6482]	> 30 µM (inactive)	> 30 µM (inactive)	> 30 µM (inactive)	> 30 µM (inactive)	> 30 µM (inactive)	> 30 µM (inactive)	> 30 µM (inactive)	> 30 µM (inactive)	> 30 µM (inactive)	> 30 µM (inactive)	> 30 µM (inactive)

From ChEMBL document CHEMBL3991601, “The target landscape of clinical kinase drugs” (Science, 2017)
